The source of these data is patent EP2524688B1, “Composition for modified release comprising ranolazine” (ratiopharm GmbH, priority 2011, dated 2012).

The nature of this series: Stability under stressed conditions (assay and degradation products). Format: physicochemical. Conditions: storage over 5 weeks at 40 °C with 75 % RH and open cap. Here is the method: In Table 1 assay and degradation products results for ranolazine per se, a pharmaceutical composition of the present invention, comprising ranolazine and HPMC-AS as well as a comparative pharmaceutical composition known from the prior art under stressed conditions are shown. Herein the stressed conditions are defined as storage over 5 weeks at 40 °C with 75 % RH and open cap.

For the compound `COc1ccccc1OCC(O)CN1CCN(CC(=O)Nc2c(C)cccc2C)CC1` (racemic) [Ranolazine (raw material), (RS)-N-(2,6-Dimethylphenyl)-2-[4-[2-hydroxy-3-(2-methoxyphenoxy)propyl]piperazin-1-yl]acetamide], the “Assay (%)” value is given as 99.6%. Also, the “Biggest impurity % (RRt)” value (RRt in brackets in the row below) is given as 0.066%.
